The text below walks through data of patent US20110059526A1, “REPROGRAMMING A CELL BY INDUCING A PLURIPOTENT GENE THROUGH USE OF AN HDAC MODULATOR” (NUPOTENTIAL, INC., priority 2008, published 2011).

In assay [1] the test system is HDAC and DNMT1 gene expression, BJ dermal fibroblasts. The assay is described as follows: VPA effect on HDAC and DNMT1 gene expression in BJ dermal fibroblasts (FIG. 18). The assay is classed as cell-based, human. The following applies: 500 μM VPA, 7 days, BJFs; HDAC1 p<0.01, SIRT4 p 0.05, DNMT1 p<0.005. The method, then: FIG. 18 is a bar graph reporting the effects of VPA (500 μM) on HDAC and DNMT1 gene expression in BJ dermal fibroblasts (obtained from ATCC).
FIG. 18 reports the effects of 500 μM VPA on HDAC and DNMT1 gene expression in BJFs. Cells were exposed to VPA for 7 days. […] Statistical significance was as follows: HDAC1 (p<0.01); SIRT4 (p, 0.05) and DNMT1 (p<0.005).

Assay [2] has as its system first exon of the Oct-4 gene. The experiment in a line: Bisulfite sequencing of the Oct-4 promoter/first exon. The assay is classed as cell-based. Particulars: VPA-treated primary human lung cells. The method, then: (§1) Cell culture. Primary human lung cells were purchased from Cell Applications (San Diego, Calif.), and were maintained at 37° C. in 95% humidity and 5% CO2 in Dulbecco's modified eagle medium (DMEM, Hyclone) containing 10% fetal bovine serum (FBS, Hyclone) and 0.5% penicillin and streptomycin. Cells were grown in the presence of 1 mM VPA, 5 mM VPA or in the absence of VPA for three days.
Bisulfite Sequencing. Bisulfite sequencing is the use of bisulfite treatment of DNA to determine the pattern of methylation. Bisulfite sequencing is based on the fact that treatment of DNA with bisulfite converts cytosine residues to uracil, but leaves 5-methylcytosine residues unaffected. Bisulfite treatment thus introduces specific changes in the DNA sequence that depend on the methylation status of individual cytosine residues, yielding very high-resolution information about the methylation status of a segment of DNA.
Methylation of pluripotent gene promoters was analyzed by bisulfite sequencing. Briefly, DNA was purified by phenolchloroform-isoamylalcohol extraction. Bisulfite conversion was performed using the EZ DNA Methylation kit following the manufacturer's protocol (Zymo Research; Orange, Calif.). The conversion rate of all cytosines in non-CpG dinucleotides to uracils was 100%. Converted DNA was amplified by PCR using primers for human Oct3/4, Nanog, and SOX2. […]

For assay [3], the system named is Sox-2 and Nanog gene expression, human dermal fibroblasts. The assay is described as follows: VPA effect on Sox-2 and Nanog gene expression in human dermal fibroblasts (FIG. 17). Format: cell-based. The following applies: VPA 5 mM, 4-6 days, multiple dermal fibroblast cell types. The method, then: FIG. 17 is a bar graph reporting the effects of VPA (5 mM) on gene expression of Oct-4, Sox-2 and Nanog in human dermal fibroblasts. Significance relative to control within each cell type: *p<0.05; **p<0.03; and ***p<0.01.
(§2) Quantitative RT-PCR. Expression of Oct-4 was determined by real-time RT-PCR. Briefly, total RNA was prepared from cultures using Trizol Reagent (Life Technologies, Gaithersburg, Md.) and RNeasy Mini kit (Qiagen; Valencia, Calif.) with DNase I digestion according to manufacturer's protocol. Total RNA (1 μg) from each sample was subjected to oligo(dT)-primed reverse transcription (Invitrogen; Carlsbad, Calif.). Real-time PCR reactions will be performed with PCR master mix on a 7300 real-time PCR system (Applied Biosystems; Foster City, Calif.). For each sample, 1 μl of diluted cDNA (1:10) will be added as template in PCR reactions. The expression level of Cot-4 was normalized to glyceraldehyde 3-phosphate-dehydrogenase (GAPD).
Pluripotency gene expression was increased in multiple dermal fibroblast cell types following exposure to VPA for 4-6 days. mRNA levels were determined by real time qRT-PCR and normalized with GAPDH.

Assay [4] deals with Oct-4 gene expression, HLFf. The assay is described as follows: Small molecules, Oct-4 gene expression by qRT-PCR (Table III), HLFf. The assay is classed as cell-based, human. Particulars: dose 5 mM, Rx Time 5. Background: Quantitative PCR measures a nucleic acid by following its amplification.
For assay [5], the system named is Oct-4 gene expression, HLFa. The experiment in a line: Small molecules, Oct-4 gene expression by qRT-PCR (Table III), HLFa. Format: cell-based, human. The following applies: dose 5 mM, Rx Time 5.
For assay [6], the system named is stemness genes, primary human lung cells. The assay is described as follows: Human Embryonic Taqman Low Density Array (TLDA) analysis of stemness genes in VPA-treated cells. The assay is classed as cell-based. Particulars: 5 mM VPA, three days. The method, then: as §1
Embryonic Taqman Low Density Array Analysis. Expression levels of several genes that contribute to a cell being pluripotentail (“stemness genes”) were determined using the Human Embryonic Taqman Low Density Array Analysis (TLDA). Several stemness genes were analyzed: GABRB3, LEFTB, NR6A1, PODXL, and PTEN. In addition, the expression level of the DNA methyl transferase DNMT3B was determined. The Applied Biosystems Human Embryonic TLDA, which contains 90 embryonic stem cell and developmental genes and 6 endogenous control genes, was used for quantitative real time RT-PCR to quantify relative expression levels (Applied Biosytems, Foster City, Calif.). Briefly, following reverse-transcription of RNA using the ABI High Capacity cDNA Reverse Transcription Kit (ABI; Foster City, Calif.), 150 ng sample cDNA in 50 μl nuclease-free water+50 μl ABI Universal Taqman 2×PCR Master Mix was pipetted into each port of the TLDA microfluidic card, and analyzed on the ABI 7900HT Fast Real Time PCR System. The ^ΔΔCT method was used to calculate relative quantities (fold change) in gene expression levels in treated cells relative to untreated control cells. The treated cells may also be compared to federally-approved human embryonic stem cells.

The subject of assay [7] is Oct-4 expression, primary human lung cells. The assay is described as follows: Quantitative RT-PCR of Oct-4 in primary human lung cells grown with VPA. Particulars: 5 mM VPA, three days, p<0.01. Format: cell-based. How it is done:
as §1
as §2, with “Oct-4 and Nanog were” for “Oct-4 was”, “real-time RT-PCR for each culture condition (0 mM VPA, 1 mM VPA, and 5 mM VPA).” for “real-time RT-PCR.”, “of Oct-4 and Nanog” for “of Cot-4”, “to GAPD.” for “to glyceraldehyde 3-phosphate-dehydrogenase (GAPD).”

Turning to `CCCC(CCC)C(=O)O` [VPA, valproic acid], the “HDAC1, SIRT4 and DNMT1 gene expression compared to control cells” value in assay [1] is recorded as “significantly u-regulated”. Further, in assay [2], the “methylation of cytosines in the first exon of Oct-4” value is “demethylation of two cytosines”. For the same molecule, the “expression of Sox-2 and Nanog” value in assay [3] is recorded as “increase in expression”. The “Oct4 FC” value in assay [4] is recorded as 5. The “Oct4 FC” value in assay [5] was 4. Further, in assay [6], the “expression of DNA methyltransferase DNMT3B” value was “down-regulated” and the “stemness-related genes not detected in control cells (FOXD3, NR5A2, TERT, LIFR, SFRP2, TFCP2L1, LIN28, SOX2, XIST)” value is listed as “induced”. The “expression of stemness genes GABRB3, LEFTB, NR6A1, PODXL, PTEN” value in assay [6] (n=three replicates) is listed as “up-regulation”. In addition, in assay [7], the “expression of Oct4 up-regulated compared to control cells” value is on record as around 2.7 fold.
